Patent US6339045B1, “N-(unsubstituted or substituted)-4-substituted-6-(unsubstituted or substituted)phenoxy-2-pyridinecarboxamides or thiocarboxamides, processes for producing the same, and herbicides” (Kureha Kagaku Kogyo Kabushiki Kaisha, priority 1995, dated 2002)

Experiments:
Assay in all cases: Herbicidal effect by foliage and soil treatment
Assay type in all cases: in vivo
Settings in all cases: 10 g ai/10a, evaluated after 14 days
[1] = system: black nightshade (Solanum nigrum)
How it was run: (§1)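 Read-out: rated growth inhibition relative to non-treated plants 14 days after spraying. Young plants (cotyledon to two leaves) received a foliage-and-soil spray of compound in aqueous Tween 20 at a controlled rate, greenhouse at 19–25 °C.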

[2] = system: cleavers (Galium aparine)
How it was run: as §1

[3] = system: common blackjack (Bidens pilosa)
How it was run: as §1

[4] = system: common chickweed (Stellaria media)
How it was run: as §1

[5] = system: field bindweed (Convolvulus arvensis)
How it was run: as §1

[6] = system: ivyleafspeedwell (Veronica hederaefolia)
How it was run: as §1

[7] = system: kediock (Sinapis arvensis)
How it was run: as §1

[8] = system: redroot pigweed (Amaranthus retroflexus)
How it was run: as §1

[9] = system: sicklepod (Cassia obtusifolia)
How it was run: as §1

[10] = system: velvetleaf (Abutilon theophrasti)
How it was run: as §1

[11] = system: wild chamomile (Matricaria chamomilla)
How it was run: as §1

Row | SMILES | herbicidal activity rating, SN (Solanum nigrum) [1] | herbicidal activity rating, GA (Galium aparine) [2] | herbicidal activity rating, BP (Bidens pilosa) [3] | herbicidal activity rating, SM (Stellaria media) [4] | herbicidal activity rating, CA (Convolvulus arvensis) [5] | herbicidal activity rating, VH (Veronica hederaefolia) [6] | herbicidal activity rating, SA (Sinapis arvensis) [7] | herbicidal activity rating, AR (Amaranthus retroflexus) [8] | herbicidal activity rating, CO (Cassia obtusifolia) [9] | herbicidal activity rating, AT (Abutilon theophrasti) [10] | herbicidal activity rating, MC (Matricaria chamomilla) [11]
1 | COCCCNC(=O)c1cc(OC)cc(Oc2cccc(C(F)(F)F)c2)n1 [Compound I-75] | 5 (percentage of weeds killed was not less than 80%) | 5 (percentage of weeds killed was not less than 80%) | 3 (percentage of weeds killed was not less than 40% and less than 60%) | 5 (percentage of weeds killed was not less than 80%) | 4 (percentage of weeds killed was not less than 60% and less than 80%) | 5 (percentage of weeds killed was not less than 80%) | 5 (percentage of weeds killed was not less than 80%) | 5 (percentage of weeds killed was not less than 80%) | 5 (percentage of weeds killed was not less than 80%) | 3 (percentage of weeds killed was not less than 40% and less than 60%) | 4 (percentage of weeds killed was not less than 60% and less than 80%)
2 | COc1cc(Oc2cccc(C(F)(F)F)c2)nc(C(=O)NCCCSC)c1 [Compound I-76] | 5 (percentage of weeds killed was not less than 80%) | 5 (percentage of weeds killed was not less than 80%) | 4 (percentage of weeds killed was not less than 60% and less than 80%) | 4 (percentage of weeds killed was not less than 60% and less than 80%) | 3 (percentage of weeds killed was not less than 40% and less than 60%) | 5 (percentage of weeds killed was not less than 80%) | 5 (percentage of weeds killed was not less than 80%) | 5 (percentage of weeds killed was not less than 80%) | 5 (percentage of weeds killed was not less than 80%) | 3 (percentage of weeds killed was not less than 40% and less than 60%) | 5 (percentage of weeds killed was not less than 80%)
3 | COc1cc(Oc2cccc(C(F)(F)F)c2)nc(C(=O)NCCCS(C)(=O)=O)c1 [Compound I-77] | 5 (percentage of weeds killed was not less than 80%) | 5 (percentage of weeds killed was not less than 80%) | 4 (percentage of weeds killed was not less than 60% and less than 80%) | 4 (percentage of weeds killed was not less than 60% and less than 80%) | 4 (percentage of weeds killed was not less than 60% and less than 80%) | 5 (percentage of weeds killed was not less than 80%) | 5 (percentage of weeds killed was not less than 80%) | 5 (percentage of weeds killed was not less than 80%) | 5 (percentage of weeds killed was not less than 80%) | 5 (percentage of weeds killed was not less than 80%) | 3 (percentage of weeds killed was not less than 40% and less than 60%)
4 | COc1cc(Oc2cccc(C(F)(F)F)c2)nc(C(=O)NCCCCl)c1 [Compound I-79] | 5 (percentage of weeds killed was not less than 80%) | 5 (percentage of weeds killed was not less than 80%) | 5 (percentage of weeds killed was not less than 80%) | 5 (percentage of weeds killed was not less than 80%) | 4 (percentage of weeds killed was not less than 60% and less than 80%) | 5 (percentage of weeds killed was not less than 80%) | 5 (percentage of weeds killed was not less than 80%) | 5 (percentage of weeds killed was not less than 80%) | 5 (percentage of weeds killed was not less than 80%) | 5 (percentage of weeds killed was not less than 80%) | 5 (percentage of weeds killed was not less than 80%)
5 | COc1cc(Oc2cccc(C(F)(F)F)c2)nc(C(=O)NCC(F)(F)C(F)(F)C(F)(F)F)c1 [Compound I-80] | 5 (percentage of weeds killed was not less than 80%) | 5 (percentage of weeds killed was not less than 80%) | 5 (percentage of weeds killed was not less than 80%) | 5 (percentage of weeds killed was not less than 80%) | 5 (percentage of weeds killed was not less than 80%) | 5 (percentage of weeds killed was not less than 80%) | 5 (percentage of weeds killed was not less than 80%) | 5 (percentage of weeds killed was not less than 80%) | 5 (percentage of weeds killed was not less than 80%) | 5 (percentage of weeds killed was not less than 80%) | 5 (percentage of weeds killed was not less than 80%)
6 | COc1cc(Oc2cccc(C(F)(F)F)c2)nc(C(=O)NCC(F)(F)C(F)(F)F)c1 [Compound I-81] | 5 (percentage of weeds killed was not less than 80%) | 5 (percentage of weeds killed was not less than 80%) | 5 (percentage of weeds killed was not less than 80%) | 5 (percentage of weeds killed was not less than 80%) | 5 (percentage of weeds killed was not less than 80%) | 5 (percentage of weeds killed was not less than 80%) | 5 (percentage of weeds killed was not less than 80%) | 5 (percentage of weeds killed was not less than 80%) | 5 (percentage of weeds killed was not less than 80%) | 5 (percentage of weeds killed was not less than 80%) | 5 (percentage of weeds killed was not less than 80%)
7 | COc1cc(Oc2cccc(C(F)(F)F)c2)nc(C(=O)NCC(F)(F)F)c1 [Compound I-82] | 5 (percentage of weeds killed was not less than 80%) | 5 (percentage of weeds killed was not less than 80%) | 4 (percentage of weeds killed was not less than 60% and less than 80%) | 5 (percentage of weeds killed was not less than 80%) | 5 (percentage of weeds killed was not less than 80%) | 5 (percentage of weeds killed was not less than 80%) | 5 (percentage of weeds killed was not less than 80%) | 5 (percentage of weeds killed was not less than 80%) | 5 (percentage of weeds killed was not less than 80%) | 5 (percentage of weeds killed was not less than 80%) | 5 (percentage of weeds killed was not less than 80%)
8 | COc1cc(Oc2cccc(C(F)(F)F)c2)nc(C(=O)NC=C(Cl)Cl)c1 [Compound I-83, N-(2,2-dichlorovinyl)-4-methoxy-6-{3-(trifluoromethyl)phenoxy}-2-pyridine carboxamide] | 5 (percentage of weeds killed was not less than 80%) | 5 (percentage of weeds killed was not less than 80%) | 5 (percentage of weeds killed was not less than 80%) | 5 (percentage of weeds killed was not less than 80%) | 5 (percentage of weeds killed was not less than 80%) | 5 (percentage of weeds killed was not less than 80%) | 5 (percentage of weeds killed was not less than 80%) | 5 (percentage of weeds killed was not less than 80%) | 5 (percentage of weeds killed was not less than 80%) | 5 (percentage of weeds killed was not less than 80%) | 5 (percentage of weeds killed was not less than 80%)
